Experimental data: ChEMBL document CHEMBL1909046, “DrugMatrix in vitro pharmacology data”

How the values were obtained:
[1] = biological target: T1, 3-hydroxy-3-methylglutaryl-coenzyme A reductase (Homo sapiens, UniProt P04035); parameters: species or system Escherichia coli;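 further: enzyme inhibition assay of HMG-CoA reductase using radiolabeled [14C]HMG-CoA as substrate; in other assays of this panel Not Active means under 50% inhibition at 10 µM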
T1 sequence (P04035 whole entry): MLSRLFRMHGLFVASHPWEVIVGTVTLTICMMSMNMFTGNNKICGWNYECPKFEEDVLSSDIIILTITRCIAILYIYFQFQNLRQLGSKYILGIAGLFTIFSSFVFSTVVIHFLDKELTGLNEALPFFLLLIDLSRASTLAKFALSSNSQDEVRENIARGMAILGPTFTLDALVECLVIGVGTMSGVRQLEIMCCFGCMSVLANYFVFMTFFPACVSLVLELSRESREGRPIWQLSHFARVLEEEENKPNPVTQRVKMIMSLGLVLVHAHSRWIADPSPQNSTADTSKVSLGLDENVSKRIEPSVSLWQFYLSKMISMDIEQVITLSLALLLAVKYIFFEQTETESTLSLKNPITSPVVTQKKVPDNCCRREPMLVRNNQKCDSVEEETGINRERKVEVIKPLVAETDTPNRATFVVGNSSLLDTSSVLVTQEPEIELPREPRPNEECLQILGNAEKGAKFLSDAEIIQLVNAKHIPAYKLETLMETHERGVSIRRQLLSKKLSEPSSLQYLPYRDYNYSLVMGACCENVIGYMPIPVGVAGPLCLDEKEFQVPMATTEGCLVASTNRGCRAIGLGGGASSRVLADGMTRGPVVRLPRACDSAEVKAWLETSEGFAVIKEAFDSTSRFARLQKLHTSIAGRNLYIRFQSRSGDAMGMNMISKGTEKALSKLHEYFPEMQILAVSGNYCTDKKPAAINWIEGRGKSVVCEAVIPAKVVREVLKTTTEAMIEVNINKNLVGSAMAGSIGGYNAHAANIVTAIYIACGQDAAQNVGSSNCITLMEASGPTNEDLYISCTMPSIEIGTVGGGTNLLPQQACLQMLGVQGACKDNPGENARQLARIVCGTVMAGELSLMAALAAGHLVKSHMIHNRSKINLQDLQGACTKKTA

[2] = biological target: Mitogen-activated protein kinase 1 (Homo sapiens, UniProt P28482); test: DRUGMATRIX: Protein Serine/Threonine Kinase, ERK2 enzyme inhibition (substrate: Myelin Basic Protein); parameters: species or system Escherichia coli; settings: Not Active = under 50% inhibition at 10 µM
[3] = biological target: Adenosine receptor A2a (Homo sapiens, UniProt P29274); test: DRUGMATRIX: Adenosine A2A radioligand binding (ligand: […]); type: cell membranes, HEK293, Membrane; settings: hek293; Not Active = under 50% inhibition at 10 µM
[4] = biological target: T2, Neutrophil elastase (Homo sapiens, UniProt P08246); type: tissue-based;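 further: inhibition of neutrophil elastase enzyme activity, measured with a p-nitroanilide-linked peptide substrate; in other assays of this panel Not Active means under 50% inhibition at 10 µM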
T2 sequence (P08246 whole entry): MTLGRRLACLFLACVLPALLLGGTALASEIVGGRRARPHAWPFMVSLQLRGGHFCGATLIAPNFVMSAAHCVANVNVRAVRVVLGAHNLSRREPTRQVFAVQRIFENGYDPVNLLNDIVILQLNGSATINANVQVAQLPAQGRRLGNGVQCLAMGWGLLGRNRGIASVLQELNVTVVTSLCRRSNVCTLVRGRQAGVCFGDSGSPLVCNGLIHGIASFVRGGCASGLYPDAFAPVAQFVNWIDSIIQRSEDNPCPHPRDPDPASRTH

[5] = biological target: T3, 5-hydroxytryptamine receptor 1A (Rattus norvegicus, UniProt P19327); type: cell membranes, Membrane; settings: cho-k1; further: in other assays of this panel Not Active means under 50% inhibition at 10 µM
T3 sequence (P19327 whole entry): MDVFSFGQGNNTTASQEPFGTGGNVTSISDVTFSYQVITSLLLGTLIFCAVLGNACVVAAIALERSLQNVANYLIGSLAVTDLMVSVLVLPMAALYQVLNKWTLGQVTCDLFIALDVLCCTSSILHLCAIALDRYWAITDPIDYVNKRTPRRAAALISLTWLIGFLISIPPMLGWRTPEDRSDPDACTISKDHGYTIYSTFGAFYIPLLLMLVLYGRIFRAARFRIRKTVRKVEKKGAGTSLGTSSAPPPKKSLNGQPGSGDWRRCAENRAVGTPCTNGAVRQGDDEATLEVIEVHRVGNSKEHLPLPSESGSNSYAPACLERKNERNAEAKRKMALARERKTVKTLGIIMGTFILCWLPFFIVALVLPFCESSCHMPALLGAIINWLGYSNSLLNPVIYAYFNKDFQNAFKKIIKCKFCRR

[6] = biological target: T4, Neuropeptide Y receptor type 1 (Homo sapiens, UniProt P25929); type: cell membranes, Membrane; settings: sk-n-mc; further: in other assays of this panel Not Active means under 50% inhibition at 10 µM
T4 sequence (P25929 whole entry): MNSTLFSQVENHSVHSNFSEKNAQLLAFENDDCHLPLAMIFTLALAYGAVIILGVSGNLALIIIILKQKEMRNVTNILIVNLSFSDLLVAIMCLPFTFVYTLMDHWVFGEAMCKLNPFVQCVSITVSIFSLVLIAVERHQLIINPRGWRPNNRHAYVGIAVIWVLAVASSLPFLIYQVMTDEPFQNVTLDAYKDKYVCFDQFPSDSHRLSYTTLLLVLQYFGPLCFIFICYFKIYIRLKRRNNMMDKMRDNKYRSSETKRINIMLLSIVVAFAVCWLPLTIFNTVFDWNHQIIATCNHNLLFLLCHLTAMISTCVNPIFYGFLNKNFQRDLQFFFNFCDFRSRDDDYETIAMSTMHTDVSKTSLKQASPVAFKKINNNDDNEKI

[7] = biological target: Delta-type opioid receptor (Homo sapiens, UniProt P41143); type: cell membranes, HEK293, Membrane; further: in other assays of this panel Not Active means under 50% inhibition at 10 µM
[8] = biological target: Cytochrome P450 3A4 (Homo sapiens, UniProt P08684); settings: bti-tn-5b1-4; further: in other assays of this panel Not Active means under 50% inhibition at 10 µM
[9] = biological target: T5, Muscarinic acetylcholine receptor M2 (Homo sapiens, UniProt P08172); type: cell membranes, CHO-K1, Membrane; settings: cho-k1; further: in other assays of this panel Not Active means under 50% inhibition at 10 µM
T5 sequence (P08172 whole entry): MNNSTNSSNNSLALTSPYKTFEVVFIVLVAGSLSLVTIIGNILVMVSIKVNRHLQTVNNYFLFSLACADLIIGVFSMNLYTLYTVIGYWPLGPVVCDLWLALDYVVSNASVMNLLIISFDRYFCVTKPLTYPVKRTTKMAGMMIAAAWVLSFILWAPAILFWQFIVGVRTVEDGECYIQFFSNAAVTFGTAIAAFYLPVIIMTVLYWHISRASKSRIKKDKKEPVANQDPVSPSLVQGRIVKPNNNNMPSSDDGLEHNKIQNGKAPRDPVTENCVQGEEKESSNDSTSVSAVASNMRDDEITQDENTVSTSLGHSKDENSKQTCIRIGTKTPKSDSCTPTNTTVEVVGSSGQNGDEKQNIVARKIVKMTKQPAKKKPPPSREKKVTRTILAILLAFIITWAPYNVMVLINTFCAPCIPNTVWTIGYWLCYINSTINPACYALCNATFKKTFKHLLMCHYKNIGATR

[10] = biological target: Acetylcholinesterase (Homo sapiens, UniProt P22303); test: DRUGMATRIX: Acetylcholinesterase enzyme inhibition (substrate: acetylthiocholine); type: cell-based, HEK293; settings: Not Active = under 50% inhibition at 10 µM
[11] = biological target: Estrogen receptor beta (Homo sapiens, UniProt Q92731); settings: sf9; further: in other assays of this panel Not Active means under 50% inhibition at 10 µM
Sequence of Estrogen receptor beta (Q92731 whole entry): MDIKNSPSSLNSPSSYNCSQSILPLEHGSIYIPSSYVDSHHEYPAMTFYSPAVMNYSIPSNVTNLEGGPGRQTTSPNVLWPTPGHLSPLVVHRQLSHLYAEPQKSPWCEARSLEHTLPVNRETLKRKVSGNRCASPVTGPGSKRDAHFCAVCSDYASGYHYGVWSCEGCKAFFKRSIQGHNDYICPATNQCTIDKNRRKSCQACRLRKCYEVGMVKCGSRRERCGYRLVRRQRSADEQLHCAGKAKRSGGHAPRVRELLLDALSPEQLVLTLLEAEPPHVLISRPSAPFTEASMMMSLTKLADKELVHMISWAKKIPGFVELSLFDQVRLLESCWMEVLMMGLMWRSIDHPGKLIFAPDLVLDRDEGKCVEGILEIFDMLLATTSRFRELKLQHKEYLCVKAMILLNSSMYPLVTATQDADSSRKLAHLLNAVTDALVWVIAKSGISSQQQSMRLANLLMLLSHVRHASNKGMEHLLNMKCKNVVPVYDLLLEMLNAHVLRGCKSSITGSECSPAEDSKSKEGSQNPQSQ

Sequence of Adenosine receptor A2a (P29274 whole entry): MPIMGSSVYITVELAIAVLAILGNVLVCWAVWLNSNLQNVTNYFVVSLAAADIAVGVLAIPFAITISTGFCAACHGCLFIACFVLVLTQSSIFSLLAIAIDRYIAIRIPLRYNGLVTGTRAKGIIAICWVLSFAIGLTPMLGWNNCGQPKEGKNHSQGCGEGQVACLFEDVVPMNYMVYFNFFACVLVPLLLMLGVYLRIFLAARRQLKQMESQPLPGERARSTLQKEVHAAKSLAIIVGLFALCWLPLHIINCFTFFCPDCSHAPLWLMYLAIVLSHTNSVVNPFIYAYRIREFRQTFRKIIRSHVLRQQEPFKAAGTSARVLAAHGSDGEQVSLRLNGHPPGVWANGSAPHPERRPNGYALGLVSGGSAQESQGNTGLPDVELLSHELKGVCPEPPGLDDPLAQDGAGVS
Sequence of Cytochrome P450 3A4 (P08684 whole entry): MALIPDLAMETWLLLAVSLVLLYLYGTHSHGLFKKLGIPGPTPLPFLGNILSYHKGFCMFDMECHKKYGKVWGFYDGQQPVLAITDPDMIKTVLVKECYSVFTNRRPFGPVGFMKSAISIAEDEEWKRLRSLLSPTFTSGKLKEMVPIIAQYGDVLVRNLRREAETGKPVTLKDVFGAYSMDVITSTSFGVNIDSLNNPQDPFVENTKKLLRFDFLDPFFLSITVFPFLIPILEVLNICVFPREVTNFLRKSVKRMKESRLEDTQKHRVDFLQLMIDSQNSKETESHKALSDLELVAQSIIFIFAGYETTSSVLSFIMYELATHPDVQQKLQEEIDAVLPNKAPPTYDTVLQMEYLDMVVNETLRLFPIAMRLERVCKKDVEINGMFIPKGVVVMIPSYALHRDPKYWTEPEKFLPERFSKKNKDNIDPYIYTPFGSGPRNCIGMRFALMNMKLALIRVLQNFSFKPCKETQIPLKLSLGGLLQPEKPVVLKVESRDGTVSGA
Sequence of Acetylcholinesterase (P22303 whole entry): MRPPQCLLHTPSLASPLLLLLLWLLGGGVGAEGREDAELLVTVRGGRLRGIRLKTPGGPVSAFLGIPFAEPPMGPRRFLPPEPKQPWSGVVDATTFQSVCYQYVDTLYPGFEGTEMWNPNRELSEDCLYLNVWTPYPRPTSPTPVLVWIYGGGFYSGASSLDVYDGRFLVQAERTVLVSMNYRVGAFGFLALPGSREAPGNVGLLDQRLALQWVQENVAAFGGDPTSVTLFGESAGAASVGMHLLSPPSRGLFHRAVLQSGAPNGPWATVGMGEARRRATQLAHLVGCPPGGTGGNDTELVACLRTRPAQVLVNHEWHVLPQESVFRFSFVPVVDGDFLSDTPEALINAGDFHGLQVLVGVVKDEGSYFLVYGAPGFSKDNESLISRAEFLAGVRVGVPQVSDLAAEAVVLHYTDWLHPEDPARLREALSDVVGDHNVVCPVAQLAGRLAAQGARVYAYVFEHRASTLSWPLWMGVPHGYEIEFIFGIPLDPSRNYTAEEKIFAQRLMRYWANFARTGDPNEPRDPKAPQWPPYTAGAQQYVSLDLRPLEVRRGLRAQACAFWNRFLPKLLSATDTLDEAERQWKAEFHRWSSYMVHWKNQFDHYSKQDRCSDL
Sequence of Mitogen-activated protein kinase 1 (P28482 whole entry): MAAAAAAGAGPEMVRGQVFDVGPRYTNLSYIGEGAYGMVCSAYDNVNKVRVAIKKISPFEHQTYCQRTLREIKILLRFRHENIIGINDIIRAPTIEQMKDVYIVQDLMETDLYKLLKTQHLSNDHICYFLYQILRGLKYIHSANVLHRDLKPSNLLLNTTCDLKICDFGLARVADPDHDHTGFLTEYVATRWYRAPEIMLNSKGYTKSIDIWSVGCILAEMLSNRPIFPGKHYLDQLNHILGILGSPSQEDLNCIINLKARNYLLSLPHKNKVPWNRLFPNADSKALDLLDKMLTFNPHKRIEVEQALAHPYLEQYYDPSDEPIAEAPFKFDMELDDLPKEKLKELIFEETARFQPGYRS
Sequence of Delta-type opioid receptor (P41143 whole entry): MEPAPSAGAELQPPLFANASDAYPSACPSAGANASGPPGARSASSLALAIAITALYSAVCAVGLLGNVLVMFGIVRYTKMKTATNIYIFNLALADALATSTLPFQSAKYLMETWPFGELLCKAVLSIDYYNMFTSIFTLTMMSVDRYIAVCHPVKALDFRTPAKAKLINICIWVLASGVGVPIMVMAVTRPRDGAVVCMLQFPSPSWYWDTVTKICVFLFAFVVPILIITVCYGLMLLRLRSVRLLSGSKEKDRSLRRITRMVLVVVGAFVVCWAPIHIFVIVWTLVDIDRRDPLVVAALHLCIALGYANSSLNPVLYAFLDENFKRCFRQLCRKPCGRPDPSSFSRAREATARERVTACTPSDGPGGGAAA

Structure (SMILES)	IC50 [1]	IC50 [2]	IC50 [3]	IC50 [4]	IC50 [5]	IC50 [6]	IC50 ([7]; hek293)	IC50 [8]	Ki [8]	IC50 [9]	IC50 ([10]; hek293)	IC50 [11]	IC50 ([7]; read-out: IC50) [µM]	Ki ([7]; read-out: Ki) [µM]	IC50 ([10]; read-out: IC50) [µM]
Cc1cc(C)nc(NS(=O)(=O)c2ccc(N)cc2)n1 [SULFAMETHAZINE]	Not Active	Not Active	Not Active	Not Active	Not Active	Not Active	Not Active	Not Active	Not Active	Not Active	Not Active	–	–	–	–
CN1CCC(=C2c3ccccc3C=Cc3ccccc32)CC1 [CYPROHEPTADINE]	Not Active	Not Active	Not Active	Not Active	–	Not Active	Not Active	Not Active	Not Active	–	Not Active	Not Active	–	–	–
CNC(=C[N+](=O)[O-])NCCSCc1ccc(CN(C)C)o1 [RANITIDINE]	Not Active	Not Active	Not Active	Not Active	Not Active	Not Active	Not Active	Not Active	Not Active	Not Active	Not Active	Not Active	–	–	–
CC(=O)N1CCN(c2ccc(OCC3COC(Cn4ccnc4)(c4ccc(Cl)cc4Cl)O3)cc2)CC1 (stereo unspecified) [KETOCONAZOLE]	Not Active	Not Active	Not Active	Not Active	Not Active	Not Active	–	–	–	–	Not Active	Not Active	12.8	4.51	–
CC/C(=C(/CC)c1ccc(O)cc1)c1ccc(O)cc1 [DIETHYLSTILBESTROL]	Not Active	Not Active	–	Not Active	Not Active	Not Active	–	Not Active	Not Active	Not Active	–	Not Active	–	–	25.6
C[C@]1(Cn2ccnn2)[C@H](C(=O)O)N2C(=O)C[C@H]2S1(=O)=O [TAZOBACTAM]	Not Active	Not Active	Not Active	Not Active	Not Active	Not Active	Not Active	Not Active	Not Active	Not Active	Not Active	–	–	–	–
COCCOC(=O)C1=C(C)NC(C)=C(C(=O)OC(C)C)C1c1cccc([N+](=O)[O-])c1 (stereo unspecified) [NIMODIPINE]	Not Active	Not Active	Not Active	Not Active	Not Active	Not Active	Not Active	–	–	Not Active	Not Active	–	–	–	–
[Cl-].[Cl-].[Zn+2] [ZINC CHLORIDE]	Not Active	Not Active	Not Active	Not Active	Not Active	Not Active	Not Active	Not Active	Not Active	Not Active	Not Active	–	–	–	–
C=CCN1CC[C@]23c4c5ccc(O)c4O[C@H]2C(=O)CC[C@@]3(O)[C@H]1C5 [NALOXONE]	Not Active	Not Active	Not Active	Not Active	Not Active	Not Active	–	–	–	Not Active	Not Active	Not Active	–	–	–
CC(C)NCC(O)COc1cccc2ccccc12 (stereo unspecified) [PROPRANOLOL]	Not Active	Not Active	Not Active	Not Active	–	Not Active	Not Active	Not Active	Not Active	Not Active	Not Active	Not Active	–	–	–
CC(C)c1nc(CN(C)C(=O)N[C@H](C(=O)N[C@@H](Cc2ccccc2)C[C@H](O)[C@H](Cc2ccccc2)NC(=O)OCc2cncs2)C(C)C)cs1 [RITONAVIR]	Not Active	Not Active	Not Active	Not Active	Not Active	Not Active	Not Active	–	–	Not Active	Not Active	Not Active	–	–	–
Clc1ccc2c(c1)C(N1CCNCC1)=Nc1ccccc1O2 [AMOXAPINE]	Not Active	Not Active	Not Active	Not Active	Not Active	Not Active	Not Active	Not Active	Not Active	–	Not Active	Not Active	–	–	–
CC(=O)CC(c1ccccc1)c1c(O)c2ccccc2oc1=O (stereo unspecified) [WARFARIN]	Not Active	Not Active	Not Active	Not Active	Not Active	Not Active	Not Active	Not Active	Not Active	Not Active	Not Active	–	–	–	–
O=C(c1ccc(OCCN2CCCCC2)cc1)c1c(-c2ccc(O)cc2)sc2cc(O)ccc12 [RALOXIFENE]	Not Active	Not Active	–	Not Active	Not Active	Not Active	–	Not Active	Not Active	Not Active	–	Not Active	–	–	0.4
COc1cc2c(c(OC)c1OC)-c1ccc(OC)c(=O)cc1[C@@H](NC(C)=O)CC2 [COLCHICINE]	Not Active	Not Active	Not Active	Not Active	Not Active	Not Active	Not Active	–	–	Not Active	Not Active	Not Active	–	–	–
